# Data: patent US6861430B2, “β-carboline derivatives and its pharmaceutical use against depression and anxiety” (Novartis AG, priority 2001, dated 2005)
# Columns and labels:
# [1] = biological target: somatostatin sst3 receptors (Homo sapiens, UniProt P32745); assay: radioligand binding, somatostatin receptor expressing cell cultures; conditions: sst3 versus other somatostatin receptors
# From the text: (§1) In particular the agents of the invention show high affinity to somatostatin receptors. More particularly they are selective antagonists at somatostatin sst3 receptors, previously called SSTR-3 receptors (see Hoyer et al., TiPS, 1995, 16; 86-88), as determined in radioligand binding and second messenger studies [see for example K. Kaupmann et al., FEBS Letts. 1993, 331:53-59.
# human sst3 receptor = human sst3 receptor (Homo sapiens, UniProt P32745); assay: radioligand binding, human sst3 receptor; conditions: read-out: pKd, human receptor (converted)
# From the text: as §1
# (§2) The preferred agent of the invention for the above-mentioned indications is the (R)-1,1-bis-ethoxymethyl-3-(4-phenyl-1H-imidazol-2-yl)-2,3,4,9-tetrahydro-1H-β-carboline, in free base or acid addition salt form. […] In the forced swim test (Porsolt), the immobility time is shortened by 30-45% on subchronic administration of 12.5-25 mg/kg p.o.
# mouse sst3 receptor = mouse sst3 receptor (Mus musculus, UniProt P30935); assay: radioligand binding, mouse sst3 receptor; conditions: read-out: pKd, mouse receptor (converted)
# From the text: as §1, §2
# rats = assay: social exploration test / social contact assay; assay type: in vivo; conditions: rat
# Experimental: In the social exploration test at doses of about 0.01 to 10 mg/kg p.o., the agents of the invention increase social contact time of rats similarly to classical anxiolytics such as benzodiazepines e.g. chlordiazepoxide or NK1 antagonists (Vassout A, Veenstra S, Hauser K, Ofner S, Brugger F, Schilling W, Gentsch C, Regulatory Peptides. 2000; 96, 7-16).
# as §2
# passive avoidance test = assay type: in vivo; conditions: 0.1, 1 or 10 mg/kg p.o.
# mice = assay: social recognition test; assay type: in vivo; conditions: doses between 0.03 and 3 mg/kg p.o.
# Experimental: The agents of the invention at 0.03-3 mg/kg p.o. enhance leaming/mlmory in mice as measured in the social recognition test similar to oxiracetam or GABAB blockers (Thor D. H. and Holloway W. R. J. Comp. Physiol. Psychol. 1982; 96: 1000-1006. Mondadori C. et al., Behavioural Brain Research 1996, 77: 227-229).
# as §2
# rat = assay: forced swim test (Porsolt), rat; assay type: in vivo; conditions: subchronic administration of 12.5-25 mg/kg p.o.
# Experimental: The agents of the invention show antidepressant-like effects in the rat, similar to desipramine or fluoxetine when given subchronically (10-30 mg/kg, p.o.) in the forced swim test. (Porsolt, R. D. et al. Nature. 1977: 266, 730-732) and also produce antidepressant-like effects in the mouse, similar to fluoxetine (Porsolt, R. D. et al. Nature 1977: 266, 730-732). Finally, these agents, when given once per day for 14 days, (0.3-30 mg/kg p.o.), reverse both the characteristic hyper-reactivity of bulbectomised rats when first placed in a novel and stressful environment and the total activity, similar to imipramine and desipramine. (Song C and Leonard BE. Hum. Psychopharmacol 1994; 9: 135-146).
# as §2
# Chain of somatostatin sst3 receptors (P32745 whole entry): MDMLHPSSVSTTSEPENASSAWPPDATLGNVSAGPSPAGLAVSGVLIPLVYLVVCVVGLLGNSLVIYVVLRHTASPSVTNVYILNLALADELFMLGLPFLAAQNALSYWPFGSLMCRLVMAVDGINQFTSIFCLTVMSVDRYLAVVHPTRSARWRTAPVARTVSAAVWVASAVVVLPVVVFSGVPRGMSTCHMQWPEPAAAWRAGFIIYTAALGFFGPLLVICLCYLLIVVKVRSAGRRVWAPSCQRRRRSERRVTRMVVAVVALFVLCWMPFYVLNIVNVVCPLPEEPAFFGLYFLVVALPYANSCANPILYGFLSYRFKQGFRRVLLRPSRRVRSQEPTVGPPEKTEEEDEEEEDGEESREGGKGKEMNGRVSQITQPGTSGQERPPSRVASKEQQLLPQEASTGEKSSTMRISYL
# Chain of human sst3 receptor (P32745 whole entry): as above
# Chain of mouse sst3 receptor (P30935 whole entry): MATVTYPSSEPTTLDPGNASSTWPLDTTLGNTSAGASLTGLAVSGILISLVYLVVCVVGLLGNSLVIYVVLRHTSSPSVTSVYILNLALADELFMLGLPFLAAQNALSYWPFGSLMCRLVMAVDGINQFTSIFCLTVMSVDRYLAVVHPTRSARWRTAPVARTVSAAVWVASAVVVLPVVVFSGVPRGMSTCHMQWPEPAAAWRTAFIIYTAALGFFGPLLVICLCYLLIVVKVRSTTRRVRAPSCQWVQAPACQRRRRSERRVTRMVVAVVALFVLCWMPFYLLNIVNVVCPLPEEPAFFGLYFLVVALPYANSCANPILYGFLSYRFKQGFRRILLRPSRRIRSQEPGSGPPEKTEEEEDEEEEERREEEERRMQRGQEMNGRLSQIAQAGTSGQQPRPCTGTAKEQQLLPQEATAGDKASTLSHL
selectivity over other somatostatin receptors [1],Kd (human sst3 receptor) [nM],Kd (mouse sst3 receptor) [nM],impairment of memory formation in passive avoidance test (passive avoidance test),melting point [°C],Compound,"dose of maximal amplitude, social contact assay (rats)",duration of social contacts of the intruder towards the resident (rats; 0.01-10 mg/kg p.o.),social recognition of a familiar partner (mice),shortening of immobility time (rat)
more than 400 fold,2.04,5.01,no impairment of memory formation,–,"CCOCC1(COCC)N[C@@H](c2nc(-c3ccccc3)c[nH]2)Cc2c1[nH]c1ccccc21 [Example 10, (R)-1,1-bis-ethoxymethyl-3-(4-phenyl-1H-imidazol-2-yl)-2,3,4,9-tetrahydro-1H-β-carboline]",0.3-3 mg/kg p.o.,increases dose dependently the duration of social contacts,significant increase of social recognition,30-45%
–,–,–,–,200 to 205,"CCCCC1(CCCC)N[C@@H](c2nc(-c3ccncc3)c[nH]2)Cc2c1[nH]c1ccccc21 [Example 1, (R)-1,1-Dibutyl-3-(4-pyridin-4-yl-1H-imidazol-2-yl)-2,3,4,9-tetrahydro-1H-β-carboline]",–,–,–,–
